# Assay results published in patent US20240188569A1, “NEW YEAST STRAIN AND ITS USES FOR THE CONTROL OF PHYTOPATHOGENS” (AGROVENTURES LLC, priority 2021, published 2024).
# System: PT22AV
# Test: Minimum inhibitory concentration of fungicides in NYDA agar
# Conditions: resistance level of PT22AV to the fungicide
structure (smiles),measurement,value
N#Cc1c[nH]cc1-c1cccc2c1OC(F)(F)O2 [Fludioxonil],Resistance level,Resistant
